The structures appear in SMILES notation. Bounds are passed on as bounds.

We go through five compounds from patent US20100174065A1, “COMPOUNDS” (GLAXO GROUP LIMITED, priority 2007, published 2010).

The subject of one series is circulating lymphocytes. The following applies: animals and man; cited from earlier work.
The conditions of series [1]: clinical studies, first 24 hours of treatment; cited from earlier work.
The target in a further series is T1, human S1P1 receptor (Homo sapiens, UniProt P21453).
T1 construct: expressed in transfected cells; membranes
In words: S1P1 GTPγS assay. It is filed as biochemical. The settings on record: agonist activity, [35S]-GTPγS binding, human S1P1 rat hepatoma membranes. As for the experimental part: (§1) For membrane preparations all steps were performed at 4° C. Rat hepatoma cells stably expressing the human S1P1 receptor or Rat Basophilic Leukaemia cells (RBL) stably expressing human S1P3 receptor were grown to 80% confluency before being harvested into 10 ml Phospho-Buffered Saline (PBS) and centrifuged at 1200 rpm for 5 minutes. After removal of the supernatant, the pellet was re-suspended and cells were homogenised within a glass Waring blender for 2 bursts of 15 secs in 200 mls of buffer (50 mM HEPES, 1 mM leupeptin, 25 μg/ml bacitracin, 1 mM EDTA, 1 mM PMSF, 2 μM pepstatin A). The blender was plunged into ice for 5 mins after the first burst and 10-40 mins after the final burst to allow foam to dissipate. The material was then spun at 500 g for 20 mins and the supernatant spun for 36 mins at 48,000 g. The pellet was resuspended in the same buffer as above but without PMSF and pepstatin A. The material was then forced through a 0.6 mm needle, made up to the required volume, (usually ×4 the volume of the original cell pellet), aliquoted and stored frozen at −80° C.
as §1, with “All” for “For membrane preparations all”, “Cells” for “Rat hepatoma cells stably expressing the human S1P1 receptor or Rat Basophilic Leukaemia cells (RBL) stably expressing human S1P3 receptor were grown to 80% confluency before being harvested into 10 ml Phospho-Buffered Saline (PBS) and centrifuged at 1200 rpm for 5 minutes. After removal of the supernatant, the pellet was re-suspended and cells”
Human S1P1 rat hepatoma membranes (1.5 μg/well) were adhered to a wheatgerm agglutinin (WGA)-coated scintillation proximity assay (SPA) beads (0.125 mg/well) in assay buffer (HEPES 20 mM, MgCl2 10 mM, NaCl 100 mM and pH adjusted to 7.4 using KOH 5M, GDP 10 μM FAC (final assay concentration) and saponin 90 μg/ml FAC was also added).
After 30 minutes pre-coupling on ice the bead and membrane suspension was dispensed into a white Greiner polypropylene LV384-well plate ([…]), containing 0.1 μl of the compound. 5 μl/well [^355]-GTPγS (0.5 nM final radioligand conc) made up in assay buffer was then added to agonist plates. The final assay cocktail (10.1 μl) was then centrifuged at 1000 rpm for 5 minutes then read immediately on a Viewlux reader.
All test compounds were dissolved in DMSO at a concentration of 10 mM and were prepared in 100% DMSO using a 1 in 4 dilution step to provide 11 point dose response curves. The dilutions were transferred to the assay plates ensuring that the DMSO concentration was constant across the plate for all assays.
All data was normalized to the mean of 16 high and 16 low control wells on each plate. A four parameter curve fit was then applied.
S1P1 expressing RH7777 membranes (1.5 μg/well) membranes (1.5 μg/well) were homogenised by passing through a 23G needle. These were then adhered to WGA-coated SPA beads (0.125 mg/well) in assay buffer (HEPES 20 mM, MgCl2 10 mM, NaCl 100 mM and pH adjusted to 7.4 using KOH 5M). GDP 10 μM FAC and saponin 90 μg/ml FAC were also added
After 30 minutes precoupling on ice, the bead and membrane suspension was dispensed into white Greiner polypropylene LV 384-well plates (5 μl/well), containing 0.1 μl of compound. 5 μl/well [^35S]-GTPγS (0.5 nM for S1P1 or 0.3 nM for S1P3 final radioligand concentration) made in assay buffer was then added to the plates. The final assay cocktail (10.1 μl) was then sealed, spun on a centrifuge, then read immediately on a Viewlux instrument.

T1 sequence (P21453 whole entry): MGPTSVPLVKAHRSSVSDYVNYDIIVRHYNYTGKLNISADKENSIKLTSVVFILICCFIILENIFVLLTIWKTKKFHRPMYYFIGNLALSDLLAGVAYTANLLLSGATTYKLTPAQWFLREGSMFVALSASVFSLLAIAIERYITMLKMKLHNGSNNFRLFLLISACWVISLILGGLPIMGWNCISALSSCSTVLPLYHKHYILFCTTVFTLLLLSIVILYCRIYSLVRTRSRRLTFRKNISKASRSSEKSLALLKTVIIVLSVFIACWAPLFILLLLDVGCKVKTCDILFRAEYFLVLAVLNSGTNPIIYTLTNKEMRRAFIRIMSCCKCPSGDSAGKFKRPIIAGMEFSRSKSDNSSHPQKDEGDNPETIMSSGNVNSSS

For the compound `CCCCCCCCc1ccc(CCC(N)(CO)CO)cc1` [FTY720], the “effect on circulating lymphocytes” value in the series on circulating lymphocytes is “reduce circulating lymphocytes”. Besides, in series [1], the bradycardia on treatment result was “results in bradycardia”.

In turn, `CC(C)Oc1ccc(-c2nc(-c3ccc4c(c3)CCN(CCCC(=O)O)CC4)no2)cc1Cl` [Example 26, 4-[7-(5-{3-Chloro-4-[(1-methylethyl)oxy]phenyl}-1,2,4-oxadiazol-3-yl)-1,2,4,5-tetrahydro-3H-3-benzazepin-3-yl]butanoic acid] showed an EC50 on human S1P1 receptor of no more than 10 nM. Turning to `CC(C)Oc1ccc(-c2nc(-c3cccc4c3OCCN(CCCC(=O)O)C4)no2)cc1C#N` [Example 34, 4-[9-(5-{3-Cyano-4-[(1-methylethyl)oxy]phenyl}-1,2,4-oxadiazol-3-yl)-2,3-dihydro-1,4-benzoxazepin-4(5H)-yl]butanoic acid], at human S1P1 receptor, the EC50 is less than 100 nM. The same measure, in the same setting: to `CC(C)Oc1ccc(-c2nc(-c3ccc4c(c3)CN(CCC(=O)O)CCO4)no2)cc1C#N` [Example 37, 3-[7-(5-{3-Cyano-4-[(1-methylethyl)oxy]phenyl}-1,2,4-oxadiazol-3-yl)-2,3-dihydro-1,4-benzoxazepin-4(5H)-yl]propanoic acid] belongs less than 100 nM; to `O=C(O)CN1CCc2ccc(-c3noc(-c4ccc(-c5ccccc5)c(C(F)(F)F)c4)n3)cc2CC1` [Example 25, (7-{5-[2-(Trifluoromethyl)-4-biphenylyl]-1,2,4-oxadiazol-3-yl}-1,2,4,5-tetrahydro-3H-3-benzazepin-3-yl)acetic acid], less than 100 nM.

A word on the EC50: it is the midpoint of the concentration-response curve. Higher therefore signals a need for much substance.
